Patent publication US20120121745A1, “AGENTS FOR THE CONTROL OF […]” (MARRONE BIO INNOVATIONS, INC., priority 2010, published 2012)

Tested on: quagga mussels
Test: Molluscicidal effects of compounds isolated from Pseudomonas broth (live mussel jar-test bioassay, procedures of US 20100266717)
Assay type: in vivo
Settings: Conc 16 μg/ml
Procedure: The culture broth derived from the 10-L fermentation P. fluorescens in FM2-growth media is first centrifuge to separate the cells pellet and supernatant. The supernatant and the cell pellet were extracted separately using Amberlite XAD-7 resin (Asolkar et al., 2006) by shaking the cell suspension/supernatant with resin at 225 rpm for two hours at room temperature. The resin and cell mass are collected by filtration through cheesecloth and washed with DI water to remove salts. The resin, cell mass, and cheesecloth are then soaked for 2 h in acetone/methanol (50/50) after which the acetone/methanol is filtered and dried under vacuum using rotary evaporator to give two separate crude extract.(one for supernatant and other for cell pellets). The crude extracts were then fractionated separately by using reversed-phase C18 vacuum liquid chromatography (H2O/CH3OH; gradient […] to 0:100%) to give 7 fractions. These fractions are then concentrated to dryness using rotary evaporator and the resulting dry residues are screened for biological activity using both a live mussel jar-test bioassay with quagga mussels as well as a cell-based assay with a freshwater snail embryo cell line (Biomphalaria glabrata). The active fractions are then subjected to reversed phase HPLC (Spectra System P4000 (Thermo Scientific) to give pure compounds, which are then screened in above mentioned bioassays to locate/identify the active compounds. To confirm the identity of the compound, additional spectroscopic data such as LC/MS and NMR is recorded.
The potency of compounds isolated from Pseudomonas broth is tested using procedures described in the US Patent Application Pub. No. 20100266717.

SMILES | % mortality 24 hr [%] | % mortality 48 hr [%] | % mortality 72 hr [%] | % mortality 96 hr [%]
CCCCCC/C=C/CCCCCCCC(=O)O [9-hexadecenoic acid] | 20 ± 14.1 | 25.5 ± 7.1 | 30 ± 14.1 | 30 ± 14.1
CCCCCC[C@@H](O)C/C=C\CCCCCCCC(=O)O [Ricinoleic acid, ricinoleic acid] | 20 ± 0 | 20 ± 0 | 20 ± 0 | 20 ± 0
